{"source": "patent US20210261621A1", "about": "“Preparation of Dilipid Polymixins and Use Thereof as Antimicrobial Adjuvants” (priority 2018, published 2021)", "key": {"[1]": {"system": "P. aeruginosa CANWARD-2011 96846", "type": "cell-based, Pseudomonas aeruginosa", "outline": "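Susceptibility is determined by broth microdilution in Mueller-Hinton broth according to CLSI. Compounds are serially diluted 2-fold and challenged with about 5×10^5 CFU/mL bacteria for 18 h at 37° C.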"}, "P. aeruginosa PAO1": {"system": "P. aeruginosa PAO1", "parameters": "MICDrug / MICDrug in combo / MIC of adjuvant in combo: unit not given beside the values"}}, "note": "Like-named read-outs stand apart in the source and are kept apart here. Positions of bridges follow the written chain, without caps; N, C: chain ends. Non-standard residues stand in square brackets, D forms with d. Residues, ends and D or L forms follow the SMILES beside them. *: point of attachment. Lauroyl = CCCCCCCCCCCC(=O)*; Dab = NCC[C@H](N)C(=O)O"}
{"smiles": "CCCCCCCCCCCC(=O)NCC[C@H](NC(=O)CCCCCCCCCCC)C(=O)N[C@H](C(=O)N[C@@H](CCN)C(=O)N[C@H]1CCNC(=O)[C@H]([C@@H](C)O)NC(=O)[C@H](CCN)NC(=O)[C@H](CCN)NC(=O)[C@H](CC(C)C)NC(=O)[C@@H](Cc2ccccc2)NC(=O)[C@H](CCN)NC1=O)[C@@H](C)O", "note": "[Compound 3, Didodecanoic Acid (Di-C12) Polymyxin] (Lauroyl-[Dab](Lauroyl)T[Dab][Dab][Dab][dF]L[Dab][Dab]T; lactam 4-C)", "values": [{"measurement": "MIC", "setting": "[1]", "value": ">128", "unit": "µg/mL"}, {"measurement": "MIC of adjuvant alone (MIC1, MIC2, MIC3, MIC4, MIC5, MICPMBN)", "setting": "P. aeruginosa PAO1; adjuvant alone, one value per checkerboard, in µg/mL", "value": 32}, {"measurement": "Interpretation", "setting": "P. aeruginosa PAO1; combination with Aztreonam", "value": "Additive (An FIC index of ≤0.5, 0.5<x≤4, or >4 denotes for synergistic, additive or antagonistic interaction, respectively)"}, {"measurement": "Interpretation", "setting": "P. aeruginosa PAO1; combination with Ceftazidime", "value": "Additive (An FIC index of ≤0.5, 0.5<x≤4, or >4 denotes for synergistic, additive or antagonistic interaction, respectively)"}, {"measurement": "Interpretation", "setting": "P. aeruginosa PAO1; combination with Chloramphenicol", "value": "Additive (An FIC index of ≤0.5, 0.5<x≤4, or >4 denotes for synergistic, additive or antagonistic interaction, respectively)"}, {"measurement": "Interpretation", "setting": "P. aeruginosa PAO1; combination with Ciprofloxacin", "value": "Additive (An FIC index of ≤0.5, 0.5<x≤4, or >4 denotes for synergistic, additive or antagonistic interaction, respectively)"}, {"measurement": "Interpretation", "setting": "P. aeruginosa PAO1; combination with Clindamycin", "value": "Additive (An FIC index of ≤0.5, 0.5<x≤4, or >4 denotes for synergistic, additive or antagonistic interaction, respectively)"}, {"measurement": "Interpretation", "setting": "P. aeruginosa PAO1; combination with Doripenem", "value": "Additive (An FIC index of ≤0.5, 0.5<x≤4, or >4 denotes for synergistic, additive or antagonistic interaction, respectively)"}, {"measurement": "Interpretation", "setting": "P. aeruginosa PAO1; combination with Doxycycline", "value": "Additive (An FIC index of ≤0.5, 0.5<x≤4, or >4 denotes for synergistic, additive or antagonistic interaction, respectively)"}, {"measurement": "Interpretation", "setting": "P. aeruginosa PAO1; combination with Fosfomycin", "value": "Additive (An FIC index of ≤0.5, 0.5<x≤4, or >4 denotes for synergistic, additive or antagonistic interaction, respectively)"}, {"measurement": "Interpretation", "setting": "P. aeruginosa PAO1; combination with Gentamicin", "value": "Additive (An FIC index of ≤0.5, 0.5<x≤4, or >4 denotes for synergistic, additive or antagonistic interaction, respectively)"}, {"measurement": "Interpretation", "setting": "P. aeruginosa PAO1; combination with Linezolid", "value": "Additive (An FIC index of ≤0.5, 0.5<x≤4, or >4 denotes for synergistic, additive or antagonistic interaction, respectively)"}, {"measurement": "Interpretation", "setting": "P. aeruginosa PAO1; combination with Meropenem", "value": "Additive (An FIC index of ≤0.5, 0.5<x≤4, or >4 denotes for synergistic, additive or antagonistic interaction, respectively)"}, {"measurement": "Interpretation", "setting": "P. aeruginosa PAO1; combination with Minocycline", "value": "Additive (An FIC index of ≤0.5, 0.5<x≤4, or >4 denotes for synergistic, additive or antagonistic interaction, respectively)"}, {"measurement": "Interpretation", "setting": "P. aeruginosa PAO1; combination with Moxifloxacin", "value": "Additive (An FIC index of ≤0.5, 0.5<x≤4, or >4 denotes for synergistic, additive or antagonistic interaction, respectively)"}, {"measurement": "Interpretation", "setting": "P. aeruginosa PAO1; combination with Novobiocin", "value": "Additive (An FIC index of ≤0.5, 0.5<x≤4, or >4 denotes for synergistic, additive or antagonistic interaction, respectively)"}, {"measurement": "Interpretation", "setting": "P. aeruginosa PAO1; combination with Piperacillin", "value": "Additive (An FIC index of ≤0.5, 0.5<x≤4, or >4 denotes for synergistic, additive or antagonistic interaction, respectively)"}, {"measurement": "Interpretation", "setting": "P. aeruginosa PAO1; combination with Pleuromutilin", "value": "Additive (An FIC index of ≤0.5, 0.5<x≤4, or >4 denotes for synergistic, additive or antagonistic interaction, respectively)"}, {"measurement": "Interpretation", "setting": "P. aeruginosa PAO1; combination with Rifampicin", "value": "Additive (An FIC index of ≤0.5, 0.5<x≤4, or >4 denotes for synergistic, additive or antagonistic interaction, respectively)"}, {"measurement": "Interpretation", "setting": "P. aeruginosa PAO1; combination with Streptomycin", "value": "Additive (An FIC index of ≤0.5, 0.5<x≤4, or >4 denotes for synergistic, additive or antagonistic interaction, respectively)"}, {"measurement": "Interpretation", "setting": "P. aeruginosa PAO1; combination with Tobramycin", "value": "Additive (An FIC index of ≤0.5, 0.5<x≤4, or >4 denotes for synergistic, additive or antagonistic interaction, respectively)"}, {"measurement": "Interpretation", "setting": "P. aeruginosa PAO1; combination with Trimethoprim", "value": "Additive (An FIC index of ≤0.5, 0.5<x≤4, or >4 denotes for synergistic, additive or antagonistic interaction, respectively)"}, {"measurement": "Interpretation", "setting": "P. aeruginosa PAO1; combination with Vancomycin", "value": "Additive (An FIC index of ≤0.5, 0.5<x≤4, or >4 denotes for synergistic, additive or antagonistic interaction, respectively)"}, {"measurement": "MIC of adjuvant in combo", "setting": "P. aeruginosa PAO1; in combination with Aztreonam", "value": "(16)"}, {"measurement": "MIC of adjuvant in combo", "setting": "P. aeruginosa PAO1; in combination with Ceftazidime", "value": "(16)"}, {"measurement": "MIC of adjuvant in combo", "setting": "P. aeruginosa PAO1; in combination with Chloramphenicol", "value": "(16)"}, {"measurement": "MIC of adjuvant in combo", "setting": "P. aeruginosa PAO1; in combination with Ciprofloxacin", "value": "(0.25)"}, {"measurement": "MIC of adjuvant in combo", "setting": "P. aeruginosa PAO1; in combination with Clindamycin", "value": "(16)"}, {"measurement": "MIC of adjuvant in combo", "setting": "P. aeruginosa PAO1; in combination with Doripenem", "value": "(16)"}, {"measurement": "MIC of adjuvant in combo", "setting": "P. aeruginosa PAO1; in combination with Doxycycline", "value": "(16)"}, {"measurement": "MIC of adjuvant in combo", "setting": "P. aeruginosa PAO1; in combination with Fosfomycin", "value": "(8)"}, {"measurement": "MIC of adjuvant in combo", "setting": "P. aeruginosa PAO1; in combination with Gentamicin", "value": "(0.25)"}, {"measurement": "MIC of adjuvant in combo", "setting": "P. aeruginosa PAO1; in combination with Linezolid", "value": "(32)"}, {"measurement": "MIC of adjuvant in combo", "setting": "P. aeruginosa PAO1; in combination with Meropenem", "value": "(16)"}, {"measurement": "MIC of adjuvant in combo", "setting": "P. aeruginosa PAO1; in combination with Minocycline", "value": "(16)"}, {"measurement": "MIC of adjuvant in combo", "setting": "P. aeruginosa PAO1; in combination with Moxifloxacin", "value": "(16)"}, {"measurement": "MIC of adjuvant in combo", "setting": "P. aeruginosa PAO1; in combination with Novobiocin", "value": "(16)"}, {"measurement": "MIC of adjuvant in combo", "setting": "P. aeruginosa PAO1; in combination with Piperacillin", "value": "(16)"}, {"measurement": "MIC of adjuvant in combo", "setting": "P. aeruginosa PAO1; in combination with Pleuromutilin", "value": "(16)"}, {"measurement": "MIC of adjuvant in combo", "setting": "P. aeruginosa PAO1; in combination with Rifampicin", "value": "(8)"}, {"measurement": "MIC of adjuvant in combo", "setting": "P. aeruginosa PAO1; in combination with Streptomycin", "value": "(0.25)"}, {"measurement": "MIC of adjuvant in combo", "setting": "P. aeruginosa PAO1; in combination with Tobramycin", "value": "(0.25)"}, {"measurement": "MIC of adjuvant in combo", "setting": "P. aeruginosa PAO1; in combination with Trimethoprim", "value": "(16)"}, {"measurement": "MIC of adjuvant in combo", "setting": "P. aeruginosa PAO1; in combination with Vancomycin", "value": "(16)"}, {"measurement": "adjuvant activity (potentiation of the panel of 21 antibiotics)", "setting": "P. aeruginosa PAO1; result in words", "value": "did not enhance the activity of any antibiotics"}]}
